Experimental findings from paper PMC8041284, “Tunable Methacrylamides for Covalent Ligand Directed Release Chemistry” (Journal of the American Chemical Society, 2021) are described below.

In the first test the target is BTK (Homo sapiens, UniProt Q06187). Nature of the test: biochemical. Conditions: read-out: BTK inhibition (%).
Chain of BTK (Q06187 402-655 limits assumed): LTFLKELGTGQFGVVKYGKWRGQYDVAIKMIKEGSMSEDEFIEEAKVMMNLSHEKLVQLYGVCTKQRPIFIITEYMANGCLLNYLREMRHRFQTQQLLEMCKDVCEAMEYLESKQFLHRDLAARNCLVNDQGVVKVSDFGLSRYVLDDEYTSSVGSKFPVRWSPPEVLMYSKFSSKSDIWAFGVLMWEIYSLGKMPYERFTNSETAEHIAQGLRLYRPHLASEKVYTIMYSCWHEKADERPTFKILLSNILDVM
By inhibition is commonly meant the relative decrease from the control value, in per cent. In the case of `C/C(=C\c1csc(C)n1)[C@@H]1C[C@@H]2O[C@@H]2CCC[C@H](C)[C@H](O)[C@@H](C)C(=O)C(C)(C)[C@@H](O)CC(=O)O1` [PCM-0095086], the inhibition at 10 µM amounted to 1.6%. Same read-out and setting: next, `CO[C@H]1C[C@H](O[C@H]2CC[C@]3(C)[C@H]4CC[C@]5(C)[C@@H](C6=CC(=O)OC6)CC[C@]5(O)[C@@H]4CC[C@]3(O)C2)O[C@H](C)[C@H]1O[C@@H]1O[C@H](CO)[C@@H](O)[C@H](O)[C@H]1O` [PCM-0216449]: 11.6%; `CC1=C[C@@H]2C(=O)[C@]3(C=C(C)[C@H](O)[C@@]3(O)[C@@H]1O)[C@H](C)C[C@@H]1[C@H]2C1(C)C` [PCM-0216603]: 3.9%.

Staying with this test, now noted: read-out: BTK inhibition (%), 0.75 uM BTK, […] probe 3l, 15 min preincubation.
As to `CCCCCCCCCCCCCCCCn1cc[n+](Cc2ccccc2)c1C` [PCM-0095755], the inhibition at 10 µM was -51.7%. Still for that read-out and setting: the figure for `COc1c(O[C@@H]2O[C@H](CO)[C@@H](O)[C@H](O)[C@H]2O)cc2occ(-c3ccc(O)cc3)c(=O)c2c1O` [PCM-0215052] is -3.1%. The same measure, in the same setting: the figure for `C/C=C/c1cc(OC)c2c(c1)C(C)C(c1ccc(O)c(OC)c1)O2` (stereo not drawn) [PCM-0216391] is 19.3%; for `C=CC(=O)Nc1cc(Nc2nccc(-c3c[nH]c4ccccc34)n2)c(OC)cc1N(C)CCN(C)C` [PCM-0215489] it is 91.7%.

`COc1cc2ncnc(Nc3cccc(Cl)c3F)c2cc1OC(=O)N1CCN(C)C[C@H]1C` [PCM-0215575]: the inhibition at 10 µM was -19.3%. Same read-out and setting: the figure for `Cc1cccc(Nc2ccccc2C(=O)O)c1C` [PCM-0085867] is 17.2%; for `COc1cc(/C=C/C(=O)OC[C@H]2O[C@H](O[C@]3(CO)O[C@H](CO)[C@@H](O)[C@@H]3OC(=O)/C=C/c3cc(OC)c(O)c(OC)c3)[C@H](O)[C@@H](O)[C@@H]2O)cc(OC)c1O` [PCM-0216306] it is -6.2%; for `NC(CO)C(=O)O` (stereo not drawn) [PCM-0216194] it is 1.7%. Still for that read-out and setting: the figure for `NC(=O)C1CCCc2c1[nH]c1ccc(Cl)cc21` (stereo not drawn) [PCM-0095104] is -3.4%; for `CCOCc1nc2c(N)nc3ccccc3c2n1CC(C)(C)O` [PCM-0215576] it is 15.2%; for `COC[C@H]1C[C@@H](c2ncc(-c3ccc4c(c3)COc3cc5c(ccc6[nH]c([C@@H]7CC[C@H](C)N7C(=O)[C@@H](NC(=O)OC)C(C)C)nc65)cc3-4)[nH]2)N(C(=O)[C@H](NC(=O)OC)c2ccccc2)C1` [PCM-0214920] it is 56%. The same measure, in the same setting: the figure for `CCN(CC)CCOC(=O)C(c1ccccc1)c1ccccc1` [PCM-0085916] is -7.8%; for `Cc1ccc(C(C)C)cc1` [PCM-0216218] it is -20.1%; for `C[C@@H]1CC[C@]2(C(=O)O)CC[C@]3(C)C(=CC[C@@H]4[C@@]5(C)CC[C@H](O[C@@H]6OC[C@H](O)[C@H](O)[C@H]6O)C(C)(C)[C@@H]5CC[C@]43C)[C@@H]2[C@]1(C)O` [PCM-0216436] it is 14.7%. Take `COc1cc(Cc2cnc(N)nc2N)cc(OC)c1OC` [PCM-0065007]: the inhibition at 10 µM was -7.8%.

For `O=c1ccc2ccc(O)c(O)c2o1` [PCM-0065041], the inhibition at 10 µM came out at 15.9%. The same measure, in the same setting: next, `CN1C(C(=O)Nc2ccccn2)=C(O)c2sccc2S1(=O)=O` [PCM-0086073]: -6.9%; `CO/N=C(\C(=O)N[C@@H]1C(=O)N2C(C(=O)O)=C(CSc3nc(=O)c(O)nn3C)CS[C@H]12)c1csc(N)n1` [PCM-0215203]: -16.2%. Same read-out and setting: the figure for `O=S(=O)(NCCNC/C=C/c1ccc(Br)cc1)c1cccc2cnccc12` [PCM-0095146] is -22.8%; for `CO[C@@H]1[C@@H](OC)[C@H](C)[C@@](O)(CC(=O)O)O[C@H]1[C@H](C)[C@H]1O[C@@]2(CC[C@@](C)([C@H]3CC[C@@](C)([C@@H]4O[C@@H]([C@H]5O[C@](C)(O)[C@H](C)C[C@@H]5C)C[C@@H]4O[C@@H]4C[C@H](OC)[C@@H](OC)[C@H](C)O4)O3)O2)C[C@H](O)[C@H]1C` [PCM-0216004] it is -20.8%; for `CC(C)(C)NC[C@H](O)COc1nsnc1N1CCOCC1` [PCM-0064983] it is -3.9%.

For `CC(C)Cn1cnc2c(N)nc3ccccc3c21` [PCM-0086321], the inhibition at 10 µM is -2.6%. Still for that read-out and setting: next, `COc1ccc(C[C@@H]2c3cc(Oc4cc(C[C@@H]5c6cc(OC)c(OC)cc6CCN5C)ccc4O)c(OC)cc3CCN2C)cc1` [PCM-0215948]: 4.6%.

As for `Cc1cc(N=Nc2ccc(S(=O)(=O)Nc3ccccn3)cc2)c(N)cc1O` [PCM-0215414], the inhibition at 10 µM was determined as 76.4%. On the same count and under the same terms, next, `C[C@H](O)[C@H](O)c1cnc2nc(N)[nH]c(=O)c2n1` [PCM-0216576]: 6.8%; `O=c1[nH]c(-c2ccc(C(F)(F)F)cc2)nc2c1CSCC2` [PCM-0095054]: -25.5%. On the same count and under the same terms, next, `O=c1[nH]c2ccccc2n1CCCN1CCC(n2c(=O)[nH]c3cc(Cl)ccc32)CC1` [PCM-0065112]: 5.4%; `NC[C@H](O)c1ccc(O)c(O)c1` [PCM-0214713]: -5.4%.

As to `O=C(Nc1ccccc1)N1CCN(c2nc(-c3ccccc3)ns2)CC1` [PCM-0010620], the inhibition at 10 µM was -3.9%. On the same count and under the same terms, the figure for `CC(C)(C)C(O)/C(=C\c1ccc(Cl)cc1)n1cncn1` (stereo not drawn) [PCM-0214890] is -16.3%; for `c1ccc2occc2c1` [PCM-0216211] it is 6.2%; for `C=C(Cc1ccccc1Cl)C(=O)OCC` [PCM-0215835] it is -4.1%.

Consider `Cc1cc(-c2ncc(CC(=O)Nc3ccc(-c4cnccn4)cn3)cc2C)ccn1` [PCM-0215274], for which the inhibition at 10 µM was found to be 1.5%.

With `Cc1cccc(C#Cc2ccccc2)n1` [PCM-0065388], the inhibition at 10 µM is -10.9%. On the same count and under the same terms, the figure for `CSCCC(N)C(=O)O` (stereo not drawn) [PCM-0216617] is 17.9%; for `O=C1Cc2c([nH]c3ccc(Br)cc23)-c2ncccc2N1` [PCM-0215289] it is -2.1%; for `O=C(O)CCCNC(=O)c1cccnc1` [PCM-0216143] it is -17%. For the molecule `Cc1c(Cn2c(C)nc3c(C(=O)O)cc(N4CCOCC4)cc32)cccc1C(F)(F)F` [PCM-0095596], the inhibition at 10 µM is -22.1%.

With `CC/C(=C(/c1ccc(/C=C/C(=O)O)cc1)c1ccc2[nH]ncc2c1)c1ccc(F)cc1Cl` [PCM-0216010], the inhibition at 10 µM was 81.1%. Same read-out and setting: next, `CC(N)=NCc1cccc(CN)c1` [PCM-0215766]: 13.1%. With `CCOc1ccc(Cc2cc([C@@H]3O[C@H](CO)[C@@H](O)[C@H](O)[C@H]3O)ccc2Cl)cc1` [PCM-0095107], the inhibition at 10 µM is -2.1%.

In the case of `CCCNC(C)C(=O)Nc1ccccc1C` (stereo not drawn) [PCM-0065518], the inhibition at 10 µM was -16.3%. The same measure, in the same setting: next, `O=C(c1ccc(OCCN2CCCCC2)cc1)c1c(-c2ccc(O)cc2)sc2cc(O)ccc12` [PCM-0065394]: 85.5%.

On to `CC(=O)CCc1ccccc1` [PCM-0216622], for which the inhibition at 10 µM was -6.9%.

Turning to `COc1ccc(C(=O)C2CCN(CC(=O)N(Cc3nc4c(c(=O)[nH]3)COCC4)CC3CC3)CC2)cc1` [PCM-0215580], the inhibition at 10 µM was -6.9%.

Turning to `C/C=C(/C)C(=O)O[C@H]1[C@@H](OC(=O)CC(C)C)c2c(ccc3ccc(=O)oc23)OC1(C)C` [PCM-0216428], the inhibition at 10 µM was found to be 7.7%.

For the molecule `C=CC[C@@H]1/C=C(\C)C[C@H](C)C[C@H](OC)[C@H]2O[C@@](O)(C(=O)C(=O)N3CCCC[C@H]3C(=O)O[C@H](/C(C)=C/[C@@H]3CC[C@@H](O)[C@H](OC)C3)[C@H](C)[C@@H](O)CC1=O)[C@H](C)C[C@@H]2OC` [PCM-0214806], the inhibition at 10 µM was -2.8%. The same measure, in the same setting: the figure for `CCN[C@H]1CN(CCCOC)S(=O)(=O)c2sc(S(N)(=O)=O)cc21` [PCM-0086056] is -11.7%. On the same count and under the same terms, next, `Clc1ccc2nsnc2c1NC1=NCCN1` [PCM-0065635]: 14.8%. On the same count and under the same terms, the figure for `C/C=C(/C)C(=O)O[C@H]1c2cc(OC)c(OC)c(OC)c2-c2c(cc3c(c2OC)OCO3)C[C@H](C)[C@]1(C)O` [PCM-0216333] is -25.5%; for `Nc1nc2n[nH]nc2c(=O)[nH]1` [PCM-0085758] it is 4.7%; for `CC/C(=C(/CC)c1ccc(O)cc1)c1ccc(O)cc1` [PCM-0086456] it is -26.5%. As to `Nc1ccccc1NC(=O)c1cnccn1` [PCM-0215479], the inhibition at 10 µM is -3.9%.

With `Nc1ccc(O)c(C(=O)O)c1` [PCM-0086222], the inhibition at 10 µM is -9%. Still for that read-out and setting: next, `CCOC(=O)CCNc1cc(N2CCc3ccccc3CC2)nc(-c2ccccn2)n1` [PCM-0095581]: -0.8%; `CCc1cccc2c3c([nH]c12)C(CC)(CC(=O)O)OCC3` (stereo not drawn) [PCM-0094929]: 1.4%. Still for that read-out and setting: the figure for `COc1ccc(C2=N[C@@H](c3ccc(Cl)cc3)[C@@H](c3ccc(Cl)cc3)N2C(=O)N2CCNC(=O)C2)c(OC(C)C)c1` [PCM-0094990] is 14.5%; for `Nc1ccn([C@@H]2O[C@H](CO)[C@@H](O)[C@H]2O)c(=O)n1` [PCM-0095215] it is -15.6%. In the case of `C[C@H]1C[C@H]2[C@@H]3C[C@H](F)C4=CC(=O)C=C[C@]4(C)[C@@]3(F)[C@@H](O)C[C@]2(C)[C@@]1(O)C(=O)CO` [PCM-0216237], the inhibition at 10 µM came to 9%. Still for that read-out and setting: next, `Oc1c(F)cc(-c2cnccc2-c2ccc(N3CCOCC3)cc2)cc1F` [PCM-0215582]: -12.4%. On the same count and under the same terms, next, `COCCCOc1ccnc(C[S+]([O-])c2nc3ccccc3[nH]2)c1C` (stereo not drawn) [PCM-0214837]: -10.1%. Same read-out and setting: next, `O=C(NCCCNc1nc(Nc2cccc(NC(=O)N3CCCC3)c2)ncc1I)c1cccs1` [PCM-0095061]: 60%; `CCC[C@H](N[C@H]1CCc2cc(F)cc(F)c2C1)C(=O)Nc1cn(C(C)(C)CNCC(C)(C)C)cn1` [PCM-0215524]: -3.9%; `CN(C)CCCNC(=O)c1ccc(-c2cc(O)c3ncccc3c2)cc1` [PCM-0215418]: 19.3%. Take `CCOC(=O)C1=C(C)NC(C)=C(C(=O)OC)C1c1cccc(Cl)c1Cl` (stereo not drawn) [PCM-0065133]: the inhibition at 10 µM turned out to be 17.9%. On to `Cc1c(-c2ccnn2C)cc(C(=O)NCc2ccc(S(C)(=O)=O)cn2)c(=O)n1-c1cccc(C(F)(F)F)c1` [PCM-0215318], for which the inhibition at 10 µM is -3.1%.
